{"source": "patent US5858684A", "about": "“Method of screening calcium receptor-active molecules” (priority 1995, dated 1999)", "key": {"[1]": {"test_system": "cyclic AMP formation in bovine parathyroid cells", "type": "cell-based", "quoted_text": "Cells were incubated as above for PTH secretion studies and at the end of the incubation, a 0.15-ml sample was taken and transferred to 0.85 ml of hot (70° C.) water and heated at this temperature for 5-10 minutes. The tubes were subsequently frozen and thawed several times and the cellular debris sedimented by centrifugation. Portions of the supernatant were acetylated and cyclic AMP concentrations determined by radioimmunoassay.\nEach value is the mean±SEM of three experiments."}, "[2]": {"test_system": "increases in [Ca2+]i elicited by extracellular Ca2+ in bovine parathyroid cells", "assay": "block of extracellular Ca2+-induced [Ca2+]i increase / Ca2+ influx in bovine parathyroid cells", "type": "cell-based", "settings": "30 μM", "quoted_text": "The cells were then pelleted, resuspended in the same buffer, but lacking the ester, and incubated a further 15 minutes at 37° C. The cells were subsequently washed twice with PCB containing 0.5 mM CaCl2 and 0.5% BSA and maintained at room temperature (about 20° C.). Immediately before use, the cells were diluted five-fold with prewarmed 0.5 mM CaCl2 -PCB to obtain a final BSA concentration of 0.1%. The concentration of cells in the cuvette used for fluorescence recording was 1-2×10^6 /ml.\nThe fluorescence of indicator-loaded cells was measured at 37° C. in a spectrofluorimeter (Biomedical Instrumentation Group, University of Pennsylvania, Philadelphia, Pa.) equipped with a thermostated cuvette holder and magnetic stirrer using excitation and emission wavelengths of 340 and 510 nm, respectively. […] Leakage of dye is dependent on temperature and most occurs within the first 2 minutes after warming the cells in the cuvette. Dye leakage increases only very slowly thereafter. To correct the calibration for dye leakage, cells were placed in the cuvette and stirred at 37° C. for 2-3 minutes. The cell suspension was then removed, the cells pelleted, and the supernatant returned to a clean cuvette. […] This estimate was subtracted from the apparent Fmin."}, "net positive charge": {"assay": "net positive charge", "type": "physicochemical"}, "circulating PTH in rats": {"assay": "circulating PTH in rats", "type": "in vivo, rat"}, "[3]": {"assay": "plasma calcitonin in rats", "type": "in vivo, rat", "settings": "p.o."}, "[4]": {"assay": "hypocalcemic response in thyroidectomized rats", "type": "in vivo, rat", "settings": "3 to 100 mg/kg p.o.", "from_the_text": "In subsequent studies, rats received a thyroidectomy (parathyroid glands intact). This surgical procedure effectively removed the C-cells secreting calcitonin and therefore enabled the relative contributions of PTH and calcitonin to the hypocalcemic effect of this compound to be determined. […] The only difference was that the rate of onset of the hypocalcemic response was somewhat delayed in thyroidectomized animals. […] Stimulatory effects of this compound on calcitonin secretion increases the rate of onset, but not the extent, of hypocalcemia."}, "[5]": {"assay": "serum ionized calcium in a human", "type": "in vivo", "settings": "higher oral doses", "from_the_text": "(§1) A range of single oral doses was used to assess safety, tolerance, and changes in primary hyperparathyroidism markers (e.g., plasma concentrations of parathyroid hormone and ionized serum calcium) and of serum calcitonin."}, "[6]": {"assay": "serum calcitonin in a human", "type": "in vivo", "settings": "single oral doses 20-400 mg", "from_the_text": "as §1"}, "[7]": {"assay": "hypocalcemic response in nephrectomized rats", "type": "in vivo, rat", "settings": "oral", "from_the_text": "The decreases in serum levels of PTH together with. the resulting hypocalcemia are desirable therapeutic effects in cases of hyperparathyroidism."}, "[8]": {"target": "T1, calcium receptor expressed from bovine parathyroid cell mRNA in Xenopus oocytes (Bos taurus, UniProt P35384)", "T1 sequence (P35384 20-1085)": "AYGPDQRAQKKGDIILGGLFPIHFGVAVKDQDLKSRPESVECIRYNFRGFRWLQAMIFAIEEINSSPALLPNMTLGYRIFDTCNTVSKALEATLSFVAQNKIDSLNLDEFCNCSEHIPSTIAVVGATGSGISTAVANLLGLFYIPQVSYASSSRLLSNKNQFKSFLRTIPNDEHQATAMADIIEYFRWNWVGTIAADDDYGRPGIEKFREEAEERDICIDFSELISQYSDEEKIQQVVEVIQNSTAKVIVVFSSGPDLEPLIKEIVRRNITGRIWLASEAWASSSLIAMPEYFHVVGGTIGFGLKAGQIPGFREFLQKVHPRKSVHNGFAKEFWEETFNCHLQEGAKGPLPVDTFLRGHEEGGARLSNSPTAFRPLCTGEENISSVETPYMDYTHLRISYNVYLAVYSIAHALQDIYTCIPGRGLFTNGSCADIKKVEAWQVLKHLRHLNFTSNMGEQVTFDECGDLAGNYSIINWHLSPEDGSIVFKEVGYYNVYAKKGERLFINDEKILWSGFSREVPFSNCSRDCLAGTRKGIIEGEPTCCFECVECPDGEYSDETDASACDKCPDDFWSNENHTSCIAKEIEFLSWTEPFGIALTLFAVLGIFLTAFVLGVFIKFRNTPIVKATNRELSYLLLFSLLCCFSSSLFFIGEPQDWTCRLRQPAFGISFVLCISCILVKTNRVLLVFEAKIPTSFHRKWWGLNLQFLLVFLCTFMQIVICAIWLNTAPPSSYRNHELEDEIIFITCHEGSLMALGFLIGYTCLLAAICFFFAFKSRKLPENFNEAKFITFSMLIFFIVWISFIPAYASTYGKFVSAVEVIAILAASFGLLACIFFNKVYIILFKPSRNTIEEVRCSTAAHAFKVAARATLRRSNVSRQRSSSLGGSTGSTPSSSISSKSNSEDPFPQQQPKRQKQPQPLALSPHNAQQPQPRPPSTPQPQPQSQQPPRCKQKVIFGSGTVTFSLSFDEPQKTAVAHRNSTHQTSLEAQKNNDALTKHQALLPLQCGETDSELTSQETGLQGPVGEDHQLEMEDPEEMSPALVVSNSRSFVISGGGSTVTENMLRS", "assay": "Cl- current in Xenopus oocytes injected with bovine parathyroid mRNA", "type": "cell-based", "settings": "30 μM", "procedure": "Glass capillary tubes (1 mm diameter) were pulled to a fine tip and manually broken to achieve a tip diameter of about 15 μmeters. A droplet of mRNA (1 ng/nl in diethylpyrocarbonate (DEPC)-treated water) was placed onto […]® and drawn into the capillary tube by suction. The capillary tube was then connected to a picospritzer (WPI Instruments) and the volume of the air-pulsed droplets adjusted to deliver 50 ng of mRNA (typically 50 nl). A 35-mm culture dish with a patch of nylon stocking fixed to the bottom was used to secure the oocytes during injection of mRNA into the vegetal pole. The injected oocytes were placed into a 35-mm culture dish containing MBS, 100 μg/ml penicillin and 100 μg/ml streptomycin and incubated at 18° C. for 3 days.\nFollowing incubation, an oocyte was placed into a 100-μl plastic chamber and superfused with MBS at a flow rate of 0.5 ml/min using a peristaltic pump. Test molecules or inorganic polycations were added by rapidly moving the tubing into different buffers. Recording and current-passing electrodes were constructed from thin-wall capillary tubing pulled to a resistance of 1-3 Mohms and filled with 3M KCl. […] Currents were recorded directly onto a strip chart recorder."}, "[9]": {"test_system": "human parathyroid calcium receptor (HuPCaR 5.2) in HEK293 cells", "assay": "intracellular calcium in HEK293 cells transfected with HuPCaR 5.2", "type": "cell-based", "settings": "Ca2+ 10 mM; Mg2+ 20 mM", "procedure": "Cells obtained from the pool of hygromycin selected HEK293 cells transfected with Cep4B containing the HuPCaR 5.2 insert were plated on collagen coated Aklar squares which had been placed into individual wells of 12-well tissue culture plates. Two to six days later, medium was removed and the cells washed with balanced salt solution and 1 ml of buffer containing 1 μM fura2-AM, 1 mM CaCl2 and 0.1% BSA and 1 mM CaCl2. Measurements of fluorescence in response to calcium receptor agonists were performed at 37° C. in a spectrofluorimeter using excitation and emission wavelengths of 340 and 510 nm, respectively. For signal calibration, Fmax was determined after addition of ionomycin (40 μM) and the apparent Fmin was determined by addition of 0.3M EGTA, 2.5M Tris-HCl; pH 10."}, "[10]": {"assay": "serum ionized Ca2+ in 5/6 nephrectomized rats (secondary hyperparathyroidism model)", "type": "in vivo, rat", "settings": "10 mg/kg i.p.; within 2 hours", "from_the_text": "An accepted and widely used animal model of secondary hyperparathyroidism arising from chronic renal failure is the 5/6 nephrectomized rat. Animals receiving such surgery become initially hypocalcemic and, to maintain serum Ca^2+ levels, there is a compensatory hyperplasia of the parathyro:Ld glands and elevated levels of circulating PTH. Male Spracue-Dawley rats (250 g) received a 5/6 nephrectomy and were allowed to recover for 2 weeks. At this time they were normocalcemic (due to elevated levels of serum PTH)."}}, "note": "Entries after “also recorded” stand apart in the source; their conditions may differ. Where two headings read alike, the source gives them in different places."}
{"smiles": "NC[C@@H]1O[C@H](O[C@H]2[C@@H](O)[C@H](O[C@@H]3[C@@H](O)[C@H](N)C[C@H](N)[C@H]3O[C@H]3O[C@H](CN)[C@@H](O)[C@H](O)[C@H]3N)O[C@@H]2CO)[C@H](N)[C@@H](O)[C@@H]1O", "note": "[Neomycin]", "values": [{"measurement": "isoproterenol-induced cyclic AMP", "setting": "[1]", "value": "depressed isoproterenol-induced increases"}, {"measurement": "effect on [Ca2+]i increases elicited by extracellular Ca2+", "setting": "[2]", "value": "blocks transient, but does not block steady-state increases"}, {"measurement": "Net (+) Charge (Table 1)", "setting": "net positive charge", "value": "+6"}, {"measurement": "net positive charge", "setting": "net positive charge", "value": "+6"}, {"measurement": "net positive charge", "setting": "net positive charge; pH 7.3", "value": "+6"}]}
{"smiles": "COc1cccc([C@@H](C)NCCCc2ccccc2Cl)c1", "note": "[NPS R-568, (R)-(+)-N-[3-(2-chlorophenyl)propyl]-amethyl-α-3-methoxybenzylamine]", "values": [{"measurement": "circulating levels of PTH", "setting": "circulating PTH in rats", "value": "decreases in the levels of serum PTH; also recorded: rapid, dose-dependent decrease"}, {"measurement": "plasma calcitonin", "setting": "[3]", "value": "an increase in calcitonin"}, {"measurement": "hypocalcemic response in thyroidectomized vs sham-operated animals", "setting": "[4]", "value": "equal in magnitude to that produced in sham-operated animals"}, {"measurement": "serum ionized calcium in human", "setting": "[5]", "value": "decrease in serum ionized calcium concentration"}, {"measurement": "serum calcitonin in human", "setting": "[6]", "value": "no apparent change in serum calcitonin"}, {"measurement": "hypocalcemic response after complete nephrectomy", "setting": "[7]", "value": "only marginally affected"}]}
{"smiles": "COc1cccc([C@@H](C)NCCCc2ccccc2)c1", "note": "(single isomer, unassigned) [NPS R-467]", "values": [{"measurement": "Cl- current", "setting": "[8]", "value": "rapid increase in Cl^-"}, {"measurement": "increase in intracellular calcium", "setting": "[9]", "value": "Robust increases"}, {"measurement": "serum ionized Ca2+ as % of controls", "setting": "[10]", "value": "83 % of controls"}]}
